Laboratory results from publication PMC10608985, “Retention Behavior of Anticancer Thiosemicarbazides in Biomimetic Chromatographic Systems and In Silico Calculations” (Molecules, 2023).

Tests used:
[1] = HPLC lipophilicity on IAM (immobilized artificial membrane, phosphatidylcholine) stationary phase; assay type: physicochemical; details: pH 7.4; for Log k IAM: Table S2; for log kw IAM: intercept, linear extrapolation to water; for log kw IAM / -S IAM: ACN/20 mM phosphate buffer; for -S IAM: slope of Soczewiński–Wachtmeister equation
Method: (§1) For the evaluation of the compounds the following stationary phases were used: C-18; biomimetic, IAM; cholesterol (Chol); immobilized proteins HSA and AGP. For the lipophilicity determination, MeOH (C-18, Chol) or ACN (IAM) were applied as the organic modifiers. The measurements were performed at pH 7.4 of the mobile phase. The regular changes in the retention of all solutes used as organic modifier content in the mobile phase on three studied stationary phases were found. It is expressed by the Soczewiński–Wachtmeister Equation (1):log k = log kw + S (% organic modifier)(1) where log kw—the intercept; S—the slope of regression curve. […] Log kw as well as S parameters are commonly applied as lipophilicity descriptors.
(§2) HPLC measurements were performed using a liquid chromatograph Knauer (Knauer, Berlin, Germany) with a dual pump, a 20 µL simple injection valve, and a UV–visible detector. The compounds were detected under UV light at 280 nm at room temperature. The retention time of an unretained solute (t0) was determined by the injection of a small amount of citric acid dissolved in water.
A Rexchrom IAM.PC.DD2 (12 μm, 100 × 4.6 mm, 300 Å) (Regis Technologies, Morton Grove, IL, USA) column was used as the stationary phase. The compounds were dissolved at a concentration of 0.5 mg × mL^−1 in MeOH. The mobile phases consisted of different volume fractions of ACN and 20 mM phosphate buffer; the aqueous phase maintained a pH = 7.4 (0.02 M KH2PO4, Na2HPO4 and 0.15 M KCl). The acetonitrile concentration ranged from 0.05 to 0.4 (v/v), depending on the structure of compound, at 0.05 intervals (Table S2 in the Supplementary Materials). The flow rate was 1 mL × min^−1.

[2] = HPLC lipophilicity on cholesterol (Chol) stationary phase; assay type: physicochemical; details: pH 7.4; for Log k Chol: Table S3; for log kw Chol: intercept, linear extrapolation to water; for log kw Chol / -S Chol: MeOH/20 mM acetate buffer; for -S Chol: slope of Soczewiński–Wachtmeister equation
Method: as §1, §2
Cogent 4 UDC Cholesterol (150 × 2.1 mm, 4 µm) MicroSolv Technology Corporation (Leland, NC, USA) column was used. The mobile phase consisted of different volume mixtures of MeOH as the organic modifier and 20 mM acetate buffer as the aqueous phase, to obtain pH = 7.4. The concentrations of the organic modifier were in the range from 0.3 to 0.8 (v/v) with step 0.05 or 0.1 (Table S3 in the Supplementary Materials). The flow rate was 0.35 mL × min^−1.

[3] = target: T1, human serum albumin (HSA) (Homo sapiens, UniProt P02768); assay: HPLC on immobilized HSA column, affinity and % plasma–protein binding; assay type: in vitro ADME; details: for log K HSA: binding equilibrium constant from calibration curve (Equation 8) of log k HSA; for log k HSA: retention on HSA column, 50 mM ammonium acetate pH 7.4 / propan-2-ol 85/15 (v/v); for fraction unbound: human, pH 7.4, % plasma–protein binding converted from log K HSA (Equation 10), read-out: %PPB HSA (converted)
T1 construct: purchased Chiralpac
Method: (§3) Measurements on HSA and AGP immobilized protein columns were carried out with […] isopropanol content in the aqueous mobile phase.
(§4) The standard calibration curve was used to predict log K values (K—binding equilibrium constant) of investigated compounds to HSA and AGP. Next, the log K values were converted into a percentage of plasma–protein binding (%PPB) of the compounds (Table 2). […] It is the lowest for compound 16 with -NO2 substituent, unsubstituted compound 1, and fluorine derivatives 2 and 9. In a group of […] derivatives in the same position of the phenyl ring, the %PPB to AGP increases with the increase in the atomic weight of the halogen atom and the lipophilicity of the molecule.
as §2
(§5) A human serum albumin (HSA) immobilized on the 5 µm silica gel column 100 × 3 mm (Chiralpac) and an α1-acid glycoprotein (AGP) immobilized on the 5 µm silica gel column 100 × 4 mm (Chiralpac) were used. The compounds were dissolved at 0.5 mg/mL concentration in 50% propan-2-ol and ammonium acetate solution (pH = 7.4) mixtures for HSA measurements. The mobile phase was composed of 50 mM ammonium acetate solution (pH = 7.4) and propan-2-ol at 85/15 (v/v) for AGP, respectively. The flow of mobile phases was 0.5 mL×min^−1. Log k values for the selected mobile phase were determined for all studied compounds and standard substances. The % protein plasma binding (% PPB) values were calculated from the calibration curve according to Valko et al..
(§6) Calibration of the protein columns: The column performance check and the calibration check were performed before measurements. The racemic mixture of warfarin was used for their performance evaluation. The following calibration set of drugs was applied: bromazepam, carbamazepine, diclofenac, nicardipine, nizatidine, piroxicam for HSA and bromazepam, chlorpromazine, imipramine, nicardipine, nizatidine, propranolol, and warfarin for AGP. The analytical standards were purchased from Sigma Aldrich Steinhen, Steinheim am Albuch, Germany). The drugs were dissolved at 0.5 mg/mL concentration in 50% propan-2-ol and ammonium acetate solution mixtures (pH = 7.4). The obtained log k values from HPLC were plotted against the log K values (K—binding equilibrium constant, log K—linearized PPB) based on the literature data for plasma–protein binding (%, PPB). The following relationships were obtained: log KHSA = 0.2513 (±0.0984) + 1.0525 (±0.1171) log k HSA(8) n=6, R=0.9761, R^2 = 0.9528, Radj2 = 0.9410, s = 0.1948 log KAGP = 0.1733 (±0.0574) + 0.8902 (±0.0787) log k AGP(9) n=7, R=0.9810, R^2 = 0.9623, Radj2 = 0.9548, s = 0.1113
(§7) Log K values were converted into %PPB using the following equation [15]:(10) %PPB=101×10^logK/1+10^logK

[4] = tested on: α1-acid glycoprotein (AGP); assay: HPLC on immobilized AGP column, affinity and % plasma–protein binding; assay type: in vitro ADME, human; details: for log K AGP: binding equilibrium constant from calibration curve (Equation 9) of log k AGP; for fraction unbound: human, pH 7.4, % plasma–protein binding converted from log K AGP (Equation 10), read-out: %PPB AGP (converted); for log k AGP: retention on AGP column, 50 mM ammonium acetate pH 7.4 / propan-2-ol 85/15 (v/v)
Method: as §3, §4, §2, §5, §6, §7

[5] = parameters: method as in Kozyra et al. [31]; details: MeOH/20 mM acetate buffer, pH 7.4, ref Kozyra et al. [31], cited from earlier work; for log kw C-18: intercept of Soczewiński–Wachtmeister equation (water as mobile phase); for -S C-18: slope of Soczewiński–Wachtmeister equation

T1 sequence (P02768 25-609): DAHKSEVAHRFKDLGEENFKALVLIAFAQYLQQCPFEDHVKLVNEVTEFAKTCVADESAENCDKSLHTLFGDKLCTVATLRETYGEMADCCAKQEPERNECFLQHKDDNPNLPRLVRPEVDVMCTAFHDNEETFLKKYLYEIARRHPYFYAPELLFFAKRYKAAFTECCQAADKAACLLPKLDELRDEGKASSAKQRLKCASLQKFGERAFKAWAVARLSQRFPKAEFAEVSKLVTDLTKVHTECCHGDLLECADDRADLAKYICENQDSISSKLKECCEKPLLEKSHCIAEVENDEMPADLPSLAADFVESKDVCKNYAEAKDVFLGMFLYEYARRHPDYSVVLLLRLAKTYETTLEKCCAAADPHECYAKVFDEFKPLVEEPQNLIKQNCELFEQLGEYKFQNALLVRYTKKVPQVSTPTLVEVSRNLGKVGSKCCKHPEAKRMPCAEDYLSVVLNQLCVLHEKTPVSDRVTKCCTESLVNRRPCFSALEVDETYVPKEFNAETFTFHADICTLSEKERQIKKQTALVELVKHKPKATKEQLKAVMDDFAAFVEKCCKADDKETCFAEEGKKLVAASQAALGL

| SMILES | Log k IAM ([1]; ACN 0.15 v/v in mobile phase) | Log k IAM ([1]; ACN 0.20 v/v in mobile phase) | Log k IAM ([1]; ACN 0.25 v/v in mobile phase) | Log k IAM ([1]; ACN 0.30 v/v in mobile phase) | Log k IAM ([1]; ACN 0.35 v/v in mobile phase) | log kw IAM [1] | -S IAM [1] | Log k Chol ([2]; MeOH 0.40 v/v in mobile phase) | Log k Chol ([2]; MeOH 0.45 v/v in mobile phase) | Log k Chol ([2]; MeOH 0.50 v/v in mobile phase) | Log k Chol ([2]; MeOH 0.60 v/v in mobile phase) | Log k Chol ([2]; MeOH 0.80 v/v in mobile phase) | log kw Chol [2] | -S Chol [2] | log K HSA [3] | log k HSA [3] | log K AGP [4] | fraction unbound [4] | log k AGP [4] | log kw C-18 [5] | further results |
| --- | --- | --- | --- | --- | --- | --- | --- | --- | --- | --- | --- | --- | --- | --- | --- | --- | --- | --- | --- | --- | --- |
| O=C(COc1ccccc1)NNC(=S)Nc1ccccc1I [Compound 4] | 0.893 | 0.642 | 0.451 | -0.029 | -0.138 | 1.7099 | 5.3942 | 0.747 | 0.519 | 0.244 | -0.037 | -0.938 | 2.3754 | 4.1215 | 1.5037 | 1.1899 | 0.6707 | 0.168 | 0.5588 | 2.4824 | Log k IAM ([1]; ACN 0.10 v/v in mobile phase): 1.158; Log k Chol ([2]; MeOH 0.30 v/v in mobile phase): 1.105; Log k Chol ([2]; MeOH 0.35 v/v in mobile phase): 0.974; fraction unbound [3]: 0.021; -S C-18 [5]: 4.4182 |
| O=C(COc1ccccc1)NNC(=S)Nc1cccc(Br)c1 [Compound 7] | 1.120 | 0.777 | 0.413 | -0.038 | -0.196 | 2.1389 | 6.8947 | 1.284 | 0.913 | 0.720 | 0.347 | -0.987 | 3.4508 | 5.4314 | 2.2501 | 1.8991 | 0.6968 | 0.159 | 0.5881 | 2.8451 | Log k Chol ([2]; MeOH 0.70 v/v in mobile phase): -0.309; -S C-18 [5]: 4.8454 |
| O=C(COc1ccccc1)NNC(=S)Nc1cccc(Cl)c1 [Compound 6] | 0.982 | 0.647 | 0.333 | -0.082 | -0.247 | 1.9101 | 6.3395 | 1.016 | 0.766 | 0.422 | 0.160 | -0.975 | 2.9670 | 4.8849 | 1.3217 | 1.0170 | 0.6152 | 0.187 | 0.4964 | 2.7672 | Log k IAM ([1]; ACN 0.10 v/v in mobile phase): 1.270; Log k Chol ([2]; MeOH 0.35 v/v in mobile phase): 1.270; fraction unbound [3]: 0.036; -S C-18 [5]: 4.8532 |

Continued, in another order:

| Log k IAM ([1]; ACN 0.15 v/v in mobile phase) | Log k IAM ([1]; ACN 0.20 v/v in mobile phase) | Log k IAM ([1]; ACN 0.25 v/v in mobile phase) | Log k IAM ([1]; ACN 0.30 v/v in mobile phase) | Log k IAM ([1]; ACN 0.35 v/v in mobile phase) | log kw IAM [1] | -S IAM [1] | Log k Chol ([2]; MeOH 0.40 v/v in mobile phase) | Log k Chol ([2]; MeOH 0.45 v/v in mobile phase) | Log k Chol ([2]; MeOH 0.50 v/v in mobile phase) | Log k Chol ([2]; MeOH 0.60 v/v in mobile phase) | Log k Chol ([2]; MeOH 0.80 v/v in mobile phase) | log kw Chol [2] | -S Chol [2] | log K HSA [3] | log k HSA [3] | log K AGP [4] | fraction unbound [4] | log k AGP [4] | SMILES | log kw C-18 [5] | further results |
| --- | --- | --- | --- | --- | --- | --- | --- | --- | --- | --- | --- | --- | --- | --- | --- | --- | --- | --- | --- | --- | --- |
| 1.352 | 0.951 | 0.655 | 0.141 | -0.016 | 2.3341 | 6.8364 | 1.303 | 1.049 | 0.685 | 0.404 | -0.783 | 3.3300 | 5.0829 | 2.1778 | 1.8304 | 0.8378 | 0.118 | 0.7465 | O=C(COc1ccccc1)NNC(=S)Nc1ccc(I)cc1 [Compound 12] | 2.9681 | Log k IAM ([1]; ACN 0.40 v/v in mobile phase): -0.358; Log k Chol ([2]; MeOH 0.70 v/v in mobile phase): -0.214; -S C-18 [5]: 4.8352 |
| 0.821 | 0.513 | 0.282 | -0.101 | -0.280 | 1.6998 | 5.7908 | 1.108 | 0.878 | 0.510 | 0.379 | -0.975 | 3.1664 | 5.0386 | 1.6830 | 1.3603 | 0.6672 | 0.169 | 0.5548 | CSc1ccc(NC(=S)NNC(=O)COc2ccccc2)cc1 [Compound 17] | 2.6753 | Log k IAM ([1]; ACN 0.10 v/v in mobile phase): 1.147; Log k Chol ([2]; MeOH 0.35 v/v in mobile phase): 1.434; Log k Chol ([2]; MeOH 0.70 v/v in mobile phase): -0.316; fraction unbound [3]: 0.011; -S C-18 [5]: 4.6859 |
| 1.141 | 0.792 | 0.453 | 0.004 | -0.111 | 2.1020 | 6.5856 | 1.158 | 0.871 | 0.571 | 0.276 | -0.886 | 3.1674 | 5.0251 | 2.0248 | 1.685 | 0.6344 | 0.18 | 0.518 | O=C(COc1ccccc1)NNC(=S)Nc1ccc(Br)cc1 [Compound 11] | 2.734 | Log k Chol ([2]; MeOH 0.35 v/v in mobile phase): 1.437; -S C-18 [5]: 4.6183 |
